# Patent publication US8415469B2, “Compounds and methods for kinase modulation, and indications therefor” (Plexxikon Inc., priority 2005, dated 2013)
# Experiments:
# Format in all cases: biochemical
# [1] = molecular target: Gsk3β (Homo sapiens, UniProt P49841); experiment: AlphaScreen kinase assay, Gsk3β; settings: read-out: IC50, activity toward kinase Gsk3β
# Description: AlphaScreen assay was used to screen additional kinases. The assay is similarly dependent on the phosphorylation of a peptide substrate. In this assay, an antibody that recognizes phosphorylated substrate is bound to an acceptor bead. The peptide substrate is attached to biotin, which binds to a donor head that contains streptavidin. Thus phosphorylated substrate is bound by antibody and streptavidin, bringing the donor and acceptor heads into close proximity when kinase is not inhibited. The donor produces singlet oxygen which results in emission from the acceptor when they are in close proximity. Conversely, when kinase is inhibited, the donor and acceptor beads are not associated and the emission from the acceptor is reduced.
# AlphaScreen assays were done using compounds dissolved in DMSO to a concentration of 20 mM. The compounds were diluted accordingly to the desired final concentrations in each sample well, using 1:3 serial dilution for a total of 8 concentration points.
# [2] = molecular target: T1, Ret (Homo sapiens, UniProt P07949); experiment: AlphaScreen kinase assay, Ret; settings: read-out: IC50, activity toward kinase Ret
# T1 construct: P1378.pET-SF BI-PTP RET H661-R1012 HIS; made in house
# T1 sequence (P07949 with tags, fused parts or gaps): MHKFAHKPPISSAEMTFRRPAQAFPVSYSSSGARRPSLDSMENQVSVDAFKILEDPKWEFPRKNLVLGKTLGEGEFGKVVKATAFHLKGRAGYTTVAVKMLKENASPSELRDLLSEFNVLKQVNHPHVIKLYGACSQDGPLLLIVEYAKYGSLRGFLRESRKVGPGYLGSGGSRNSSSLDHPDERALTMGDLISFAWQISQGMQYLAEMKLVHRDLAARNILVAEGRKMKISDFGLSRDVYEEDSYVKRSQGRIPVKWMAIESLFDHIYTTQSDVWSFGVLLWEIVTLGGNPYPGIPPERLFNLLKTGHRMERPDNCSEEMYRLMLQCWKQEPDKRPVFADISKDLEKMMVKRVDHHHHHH
# [3] = molecular target: T2, FGFR1 (Homo sapiens, UniProt P11362, C488A/C584S); experiment: AlphaScreen kinase assay, FGFR1; settings: read-out: IC50, activity toward kinase FGFR
# T2 construct: P1351.pET N6 BI-PTP FGFR A458-E765-X C488A, C584S; made in house; host or cells: E. coli (PTP1B co-expressed)
# [4] = molecular target: T3, Jnk1 (Homo sapiens, UniProt P45983); experiment: AlphaScreen kinase assay, Jnk1; settings: read-out: IC50, activity toward kinase Jnk1
# T3 construct: purchased Upstate Biotechnology
# [5] = molecular target: T4, c-Raf-1 (Homo sapiens, UniProt P04049); experiment: AlphaScreen kinase assay, c-Raf-1; settings: read-out: IC50, activity toward kinase c-Raf-1
# T4 construct: purchased Upstate Biotechnology
# [6] = molecular target: T5, B-Raf (Homo sapiens, UniProt P15056); experiment: AlphaScreen kinase assay, B-Raf; settings: read-out: IC50, activity toward kinase B-Raf
# T5 construct: purchased Upstate Biotechnology
# [7] = molecular target: MAP4K4 (Homo sapiens, UniProt O95819); experiment: AlphaScreen kinase assay, MAP4K4; settings: read-out: IC50, activity toward kinase MAP4K4
# [8] = molecular target: T6, Pyk2 (Homo sapiens, UniProt Q14289); experiment: AlphaScreen kinase assay, Pyk2; settings: read-out: IC50, activity toward kinase Pyk2
# T6 construct: purchased Upstate Biotechnology
# [9] = molecular target: T7, B-Raf V600E (Homo sapiens, UniProt P15056, V600E); experiment: AlphaScreen kinase assay, B-Raf V600E; settings: read-out: IC50, activity toward kinase B-Raf V600E
# T7 construct: P4254. pFastBacBD-CDC37 BRAF D437-K722-X, V600E; His6 with pFastBac HT leader (TEV site) (N); made in house; host or cells: Sf9 (baculovirus; chaperone CDC37 co-expressed)
# [10] = molecular target: T8, Src (Homo sapiens, UniProt P12931); experiment: AlphaScreen kinase assay, Src; settings: read-out: IC50, activity toward kinase Src
# T8 construct: P1144. pET-N6 BI-PTP SRC V86-L536-X; made in house
# [11] = molecular target: T9, Fms (Homo sapiens, UniProt P07333); experiment: AlphaScreen kinase assay, Fms; settings: read-out: IC50, activity toward kinase Fms
# T9 construct: purchased Upstate Biotechnology
# [12] = molecular target: T10, Kit (Homo sapiens, UniProt P10721); experiment: AlphaScreen kinase assay, Kit; settings: read-out: IC50, activity toward kinase Kit
# T10 construct: P1332.N6 BI PTP KIT M552-K948-X COD; His6 (N); made in house; host or cells: E. coli (PTP1B co-expressed)
# [13] = molecular target: T11, Jnk3 (Homo sapiens, UniProt P53779); experiment: AlphaScreen kinase assay, Jnk3; settings: read-out: IC50, activity toward kinase Jnk3
# T11 construct: purchased Upstate Biotechnology
# [14] = molecular target: T12, Flt1 (Homo sapiens, UniProt P17948); experiment: AlphaScreen kinase assay, Flt1; settings: read-out: IC50, activity toward kinase Flt1
# T12 construct: P1826.pETN6 BI-PTP FLT1 M799-D1165-X WT; His6 (N); made in house; host or cells: E. coli (PTP1B co-expressed)
# T12 sequence (P17948 with tags, fused parts or gaps): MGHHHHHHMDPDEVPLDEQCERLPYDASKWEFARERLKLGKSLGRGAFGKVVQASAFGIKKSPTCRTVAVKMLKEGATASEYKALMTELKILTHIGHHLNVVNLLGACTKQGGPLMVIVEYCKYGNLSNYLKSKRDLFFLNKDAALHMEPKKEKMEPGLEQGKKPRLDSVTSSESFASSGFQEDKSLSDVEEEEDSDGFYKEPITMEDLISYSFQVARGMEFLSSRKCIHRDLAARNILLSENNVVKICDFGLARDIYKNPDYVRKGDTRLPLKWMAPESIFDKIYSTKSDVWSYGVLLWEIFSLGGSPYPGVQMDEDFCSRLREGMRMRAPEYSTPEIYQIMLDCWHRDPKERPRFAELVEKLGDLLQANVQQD
# [15] = molecular target: T13, Kdr (Homo sapiens, UniProt P35968); experiment: Z'-Lyte FRET kinase assay (Invitrogen), Kdr; settings: read-out: IC50, activity toward kinase Kdr
# T13 construct: purchased Invitrogen (assay run by Invitrogen)
# [16] = molecular target: T14, Abl (Homo sapiens, UniProt P00519); experiment: AlphaScreen kinase assay, Abl; settings: read-out: activity toward kinase Abl, IC50
# T14 construct: P1121. pET-SPEC BI-PTP Abl G227-V515-X; His6 (N); made in house; host or cells: E. coli (PTP1B co-expressed)
# T14 sequence (P00519 with tags, fused parts or gaps): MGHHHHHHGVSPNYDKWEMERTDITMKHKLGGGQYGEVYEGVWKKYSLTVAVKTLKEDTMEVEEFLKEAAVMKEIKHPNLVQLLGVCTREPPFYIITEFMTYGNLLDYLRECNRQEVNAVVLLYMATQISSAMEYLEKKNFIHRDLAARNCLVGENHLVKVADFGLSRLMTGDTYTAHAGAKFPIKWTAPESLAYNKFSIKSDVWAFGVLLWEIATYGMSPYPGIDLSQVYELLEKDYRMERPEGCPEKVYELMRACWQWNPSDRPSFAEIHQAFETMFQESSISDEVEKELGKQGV
# Summary of the method: (§1)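 Uses phospho-specific antibody on acceptor beads plus streptavidin donor beads capturing biotinylated peptide substrate; singlet oxygen from donor excites nearby acceptor. Inhibitors tested in 8-point, 1:3 titrations starting from 20 mM DMSO solutions.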
# [17] = molecular target: T15, Stk6 (Homo sapiens, UniProt O14965); experiment: Z'-Lyte FRET kinase assay (Invitrogen), Stk6; settings: read-out: IC50, activity toward kinase Stk6
# T15 construct: purchased Invitrogen (Carlsbad, Calif.), screening service
# T15 sequence (O14965 1-403): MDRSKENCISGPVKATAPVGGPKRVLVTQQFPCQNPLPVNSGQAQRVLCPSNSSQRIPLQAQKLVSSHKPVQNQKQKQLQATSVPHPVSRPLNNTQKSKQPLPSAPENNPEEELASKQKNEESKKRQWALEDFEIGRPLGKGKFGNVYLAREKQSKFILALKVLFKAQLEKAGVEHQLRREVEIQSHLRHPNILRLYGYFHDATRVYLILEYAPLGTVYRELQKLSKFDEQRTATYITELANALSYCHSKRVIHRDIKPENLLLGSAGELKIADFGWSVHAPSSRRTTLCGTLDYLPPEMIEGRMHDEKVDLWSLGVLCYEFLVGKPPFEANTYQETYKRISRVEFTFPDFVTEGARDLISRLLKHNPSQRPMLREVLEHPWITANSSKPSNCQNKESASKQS
# [18] = molecular target: T16, Btk (Homo sapiens, UniProt Q06187); experiment: Z'-Lyte FRET kinase assay (Invitrogen), Btk; settings: read-out: IC50, activity toward kinase Btk
# T16 construct: purchased Invitrogen (assay run by Invitrogen)
# [19] = molecular target: T17, Met (Homo sapiens, UniProt P08581); experiment: AlphaScreen kinase assay, Met; settings: read-out: IC50, activity toward kinase Met
# T17 construct: P1818.pETN6 BI-PTP MET G1056-G1364-X WT; His6 (N); made in house; host or cells: E. coli (PTP1B co-expressed)
# Summary of the method: as §1
# Chain of Gsk3β (P49841 whole entry): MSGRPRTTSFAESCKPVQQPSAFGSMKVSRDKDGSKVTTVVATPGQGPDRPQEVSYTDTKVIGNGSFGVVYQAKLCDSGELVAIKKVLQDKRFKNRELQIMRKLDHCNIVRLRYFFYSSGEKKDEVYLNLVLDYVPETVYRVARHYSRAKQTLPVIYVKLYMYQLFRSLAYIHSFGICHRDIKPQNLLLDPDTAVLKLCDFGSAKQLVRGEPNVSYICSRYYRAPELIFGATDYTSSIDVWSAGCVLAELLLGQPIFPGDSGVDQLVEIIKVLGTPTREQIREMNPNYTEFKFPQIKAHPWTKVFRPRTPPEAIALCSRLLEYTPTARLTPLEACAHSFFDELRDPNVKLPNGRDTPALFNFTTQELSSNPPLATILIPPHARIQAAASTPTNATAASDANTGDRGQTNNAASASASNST
# T9 sequence (P07333 20-972): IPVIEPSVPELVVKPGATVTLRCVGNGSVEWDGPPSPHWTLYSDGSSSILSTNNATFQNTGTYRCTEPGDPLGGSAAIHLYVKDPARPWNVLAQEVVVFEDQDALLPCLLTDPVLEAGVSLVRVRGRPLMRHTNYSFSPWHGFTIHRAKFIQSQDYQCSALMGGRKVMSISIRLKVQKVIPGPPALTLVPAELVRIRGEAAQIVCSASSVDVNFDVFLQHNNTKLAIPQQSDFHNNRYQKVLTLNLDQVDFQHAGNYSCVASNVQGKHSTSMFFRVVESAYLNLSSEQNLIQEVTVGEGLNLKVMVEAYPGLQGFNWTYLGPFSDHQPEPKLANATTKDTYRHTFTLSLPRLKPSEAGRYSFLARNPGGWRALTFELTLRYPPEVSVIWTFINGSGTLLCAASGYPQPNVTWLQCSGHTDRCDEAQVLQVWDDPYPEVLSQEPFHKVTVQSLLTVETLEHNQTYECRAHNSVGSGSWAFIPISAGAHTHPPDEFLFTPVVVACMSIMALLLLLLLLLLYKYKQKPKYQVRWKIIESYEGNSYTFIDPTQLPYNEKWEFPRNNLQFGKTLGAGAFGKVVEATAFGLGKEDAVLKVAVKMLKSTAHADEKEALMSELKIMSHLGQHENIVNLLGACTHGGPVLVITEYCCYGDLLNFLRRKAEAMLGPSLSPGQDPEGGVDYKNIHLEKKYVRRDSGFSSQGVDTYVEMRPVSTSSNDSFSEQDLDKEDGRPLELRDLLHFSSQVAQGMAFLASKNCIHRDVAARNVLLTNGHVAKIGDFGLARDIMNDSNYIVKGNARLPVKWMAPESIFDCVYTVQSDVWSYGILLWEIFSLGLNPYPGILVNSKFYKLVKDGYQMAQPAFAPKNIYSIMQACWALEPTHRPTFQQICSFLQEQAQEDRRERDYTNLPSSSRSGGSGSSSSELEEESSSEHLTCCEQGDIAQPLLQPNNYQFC
# Chain of MAP4K4 (O95819 whole entry): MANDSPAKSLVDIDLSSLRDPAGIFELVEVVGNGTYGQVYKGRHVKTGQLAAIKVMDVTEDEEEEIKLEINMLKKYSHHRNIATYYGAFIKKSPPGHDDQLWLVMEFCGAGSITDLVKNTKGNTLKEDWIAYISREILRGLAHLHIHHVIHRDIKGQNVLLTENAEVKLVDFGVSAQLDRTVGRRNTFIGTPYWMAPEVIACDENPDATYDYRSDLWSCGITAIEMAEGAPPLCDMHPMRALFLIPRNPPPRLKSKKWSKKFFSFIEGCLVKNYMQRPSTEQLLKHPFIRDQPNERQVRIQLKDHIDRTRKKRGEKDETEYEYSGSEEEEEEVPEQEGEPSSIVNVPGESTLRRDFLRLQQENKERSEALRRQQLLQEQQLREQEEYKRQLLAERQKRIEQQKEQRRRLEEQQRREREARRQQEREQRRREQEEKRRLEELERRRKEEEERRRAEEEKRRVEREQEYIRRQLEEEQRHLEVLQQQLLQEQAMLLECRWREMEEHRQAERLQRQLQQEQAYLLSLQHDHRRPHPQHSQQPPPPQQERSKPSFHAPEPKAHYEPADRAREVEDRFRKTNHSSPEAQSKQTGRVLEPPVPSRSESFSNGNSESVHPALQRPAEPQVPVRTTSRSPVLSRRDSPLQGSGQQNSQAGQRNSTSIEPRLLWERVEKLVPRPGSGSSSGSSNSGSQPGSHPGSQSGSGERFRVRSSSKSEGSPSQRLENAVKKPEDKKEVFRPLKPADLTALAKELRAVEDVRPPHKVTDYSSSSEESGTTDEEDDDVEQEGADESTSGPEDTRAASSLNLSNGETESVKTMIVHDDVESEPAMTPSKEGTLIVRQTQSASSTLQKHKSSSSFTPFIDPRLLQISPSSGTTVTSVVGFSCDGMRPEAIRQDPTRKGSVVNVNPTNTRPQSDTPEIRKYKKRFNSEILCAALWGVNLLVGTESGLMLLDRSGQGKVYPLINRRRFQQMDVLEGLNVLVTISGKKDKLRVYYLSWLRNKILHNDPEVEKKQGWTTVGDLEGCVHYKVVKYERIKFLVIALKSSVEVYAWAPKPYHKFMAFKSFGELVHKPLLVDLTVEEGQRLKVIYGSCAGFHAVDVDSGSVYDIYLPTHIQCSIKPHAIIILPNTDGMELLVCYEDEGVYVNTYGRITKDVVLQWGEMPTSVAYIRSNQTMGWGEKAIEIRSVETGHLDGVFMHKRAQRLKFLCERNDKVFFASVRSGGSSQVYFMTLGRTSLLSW
# T2 sequence (P11362 458-765 C488A/C584S): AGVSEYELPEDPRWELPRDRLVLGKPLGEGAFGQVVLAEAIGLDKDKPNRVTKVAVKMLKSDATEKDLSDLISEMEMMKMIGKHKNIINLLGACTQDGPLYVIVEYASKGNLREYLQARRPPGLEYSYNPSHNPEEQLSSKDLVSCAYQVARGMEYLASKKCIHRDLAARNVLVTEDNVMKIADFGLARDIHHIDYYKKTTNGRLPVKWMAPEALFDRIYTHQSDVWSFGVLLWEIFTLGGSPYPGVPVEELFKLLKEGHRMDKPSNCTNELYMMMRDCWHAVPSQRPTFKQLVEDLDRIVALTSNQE
# T10 sequence (P10721 with tags, fused parts or gaps): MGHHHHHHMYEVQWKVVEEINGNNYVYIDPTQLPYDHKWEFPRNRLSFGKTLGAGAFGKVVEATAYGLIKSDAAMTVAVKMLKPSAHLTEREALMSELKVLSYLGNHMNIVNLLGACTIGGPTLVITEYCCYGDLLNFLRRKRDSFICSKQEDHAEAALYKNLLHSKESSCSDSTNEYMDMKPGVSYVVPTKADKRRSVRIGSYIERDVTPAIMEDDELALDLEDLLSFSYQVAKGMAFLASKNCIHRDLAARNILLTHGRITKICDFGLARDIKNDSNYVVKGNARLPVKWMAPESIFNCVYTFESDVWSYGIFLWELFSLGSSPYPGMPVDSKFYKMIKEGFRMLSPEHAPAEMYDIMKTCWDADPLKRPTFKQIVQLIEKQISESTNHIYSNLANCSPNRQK
# T7 sequence (P15056 with tags, fused parts or gaps V600E): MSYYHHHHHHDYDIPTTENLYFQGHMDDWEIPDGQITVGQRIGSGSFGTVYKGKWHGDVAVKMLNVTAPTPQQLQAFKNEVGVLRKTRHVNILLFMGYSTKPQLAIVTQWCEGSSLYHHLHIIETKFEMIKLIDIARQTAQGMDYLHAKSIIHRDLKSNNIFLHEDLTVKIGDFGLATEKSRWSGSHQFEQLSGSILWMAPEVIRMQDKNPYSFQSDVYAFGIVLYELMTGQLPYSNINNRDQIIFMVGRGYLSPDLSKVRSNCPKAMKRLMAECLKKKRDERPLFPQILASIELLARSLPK
# T5 sequence (P15056 whole entry): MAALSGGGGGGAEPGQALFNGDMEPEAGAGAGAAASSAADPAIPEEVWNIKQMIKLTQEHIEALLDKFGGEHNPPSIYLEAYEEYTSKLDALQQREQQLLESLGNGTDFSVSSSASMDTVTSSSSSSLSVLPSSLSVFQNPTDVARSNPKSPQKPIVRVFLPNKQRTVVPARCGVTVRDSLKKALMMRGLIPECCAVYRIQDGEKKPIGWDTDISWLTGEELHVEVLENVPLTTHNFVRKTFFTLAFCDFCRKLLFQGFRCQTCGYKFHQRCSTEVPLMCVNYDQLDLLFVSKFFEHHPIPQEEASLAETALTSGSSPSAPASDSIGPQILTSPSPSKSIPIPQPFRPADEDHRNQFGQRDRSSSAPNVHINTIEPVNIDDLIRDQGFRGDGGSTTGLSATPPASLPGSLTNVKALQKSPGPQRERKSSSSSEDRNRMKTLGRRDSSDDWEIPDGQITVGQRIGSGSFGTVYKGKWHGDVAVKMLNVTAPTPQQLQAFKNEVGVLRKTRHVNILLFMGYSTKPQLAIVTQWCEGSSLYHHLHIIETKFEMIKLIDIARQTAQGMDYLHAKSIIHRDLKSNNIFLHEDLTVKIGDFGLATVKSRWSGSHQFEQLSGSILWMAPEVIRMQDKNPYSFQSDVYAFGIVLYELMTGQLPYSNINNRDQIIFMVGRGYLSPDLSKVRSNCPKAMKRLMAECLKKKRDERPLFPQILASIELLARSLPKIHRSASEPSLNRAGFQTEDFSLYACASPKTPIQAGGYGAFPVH
# T4 sequence (P04049 whole entry): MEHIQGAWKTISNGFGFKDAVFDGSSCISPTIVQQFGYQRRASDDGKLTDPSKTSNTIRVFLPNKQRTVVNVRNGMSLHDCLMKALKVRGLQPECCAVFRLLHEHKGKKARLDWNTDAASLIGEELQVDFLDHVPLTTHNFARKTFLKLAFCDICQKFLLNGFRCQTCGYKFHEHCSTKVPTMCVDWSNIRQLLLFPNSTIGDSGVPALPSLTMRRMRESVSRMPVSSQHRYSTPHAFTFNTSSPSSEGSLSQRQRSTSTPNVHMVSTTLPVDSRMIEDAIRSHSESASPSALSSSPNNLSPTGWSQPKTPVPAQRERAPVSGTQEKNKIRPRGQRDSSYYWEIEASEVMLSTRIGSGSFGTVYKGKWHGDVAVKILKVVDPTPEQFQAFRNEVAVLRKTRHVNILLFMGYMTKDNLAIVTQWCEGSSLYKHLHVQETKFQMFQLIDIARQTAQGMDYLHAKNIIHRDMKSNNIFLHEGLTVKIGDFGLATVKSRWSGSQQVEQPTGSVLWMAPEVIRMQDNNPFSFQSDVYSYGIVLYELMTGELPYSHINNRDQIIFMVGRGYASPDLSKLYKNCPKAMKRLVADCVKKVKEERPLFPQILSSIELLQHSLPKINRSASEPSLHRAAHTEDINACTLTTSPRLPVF
IC50 [1] [µM],IC50 [2] [µM],IC50 [3] [µM],IC50 [4] [µM],IC50 [5] [µM],IC50 [6] [µM],IC50 [7] [µM],IC50 [8] [µM],IC50 [9] [µM],IC50 [10] [µM],IC50 [11] [µM],IC50 [12] [µM],IC50 [13] [µM],IC50 [14] [µM],IC50 [15] [µM],IC50 [16] [µM],IC50 [17] [µM],IC50 [18] [µM],IC50 [19] [µM],Compound
≤ 10,≤ 10,≤ 10,≤ 10,≤ 10,≤ 10,≤ 10,≤ 10,≤ 10,,,,,,,,,,,"CCS(=O)(=O)Nc1ccc(F)c(C(=O)c2c[nH]c3ncc(-c4cccnc4)cc23)c1F [Compound P-0728, N-[2,4-difluoro-3-(5-pyridin-3-yl-1H-pyrrolo[2,3-b]pyridine-3-carbonyl)-phenyl]-ethanesulfonamide]"
≤ 10,,≤ 10,,,≤ 10,≤ 10,,≤ 10,≤ 10,≤ 10,≤ 10,,,,,,,,"CCCS(=O)(=O)Nc1ccc(F)c(C(=O)c2c[nH]c3ncc(OCC)cc23)c1F [Compound P-1252, Propane-1-sulfonic acid [3-(5-ethoxy-1H-pyrrolo[2,3-b]pyridine-3-carbonyl)-2,4-difluoro-phenyl]-amide]"
≤ 10,,,,,,≤ 10,≤ 10,,,≤ 10,≤ 10,≤ 10,≤ 10,,,,,,"CN(C)c1cccc(Nc2ccc3cc[nH]c3n2)c1 [Compound P-1372, N,N-Dimethyl-N′-(1H-pyrrolo[2,3-b]pyridin-6-yl)-benzene-1,3-diamine]"
≤ 10,,,,,,,,,,,,,,≤ 10,≤ 10,≤ 10,,,S=C(NCc1ccccn1)NCc1c[nH]c2ncccc12 [Compound P-0169]
≤ 10,≤ 10,≤ 10,≤ 10,≤ 10,≤ 10,,,≤ 10,≤ 10,≤ 10,≤ 10,≤ 10,,,,,≤ 10,≤ 10,"Nc1ccc(F)c(C(=O)c2c[nH]c3ncc(-c4cccnc4)cc23)c1F [Compound P-0763, (3-amino-2,6-difluoro-phenyl)-(5-pyridin-3-yl-1H-pyrrolo[2,3-b]pyridin-3-yl)-methanone]"
≤ 10,,≤ 10,,≤ 10,≤ 10,≤ 10,,≤ 10,,≤ 10,≤ 10,,,,,,,,"O=C(c1c(F)ccc(NS(=O)(=O)c2ccccc2)c1F)c1c[nH]c2ncccc12 [Compound P-0913, N-[2,4-Difluoro-3-(1H-pyrrolo[2,3-b]pyridine-3-carbonyl)-phenyl]-benzenesulfonamide]"
